Assay [1] concerns zebrafish model of insomnia established by PTZ. Description: Evaluation of the efficacy in improving sleep, PTZ zebrafish model of insomnia. The assay is classed as in vivo. As to conditions: 125 μg/mL, 24 h, n = 10. An excerpt: In the present application, a state in which zebrafish is in a speed of movement of greater than 20 mm/s is considered to be an awake state, a state in which the speed of movement is less than 4 mm/s is considered to be a sleep state, and a state in which the speed of movement is 4-20 mm/s corresponds to sleep latency.
As used herein, the term “amount of wake after sleep onset” refers to the distance of movements during which the speed of movement is greater than 20 mm/s.
As used herein, the term “time of wake after sleep onset” refers to the time of movements during which the speed of movement is greater than 20 mm/s.
The 5 dpf wild type zebrafish of line AB were randomly selected and placed in a 6-well plate, and for the experimental groups 30 zebrafish were treated in each well. The positive control melatonin was in a concentration of 125 μg/mL. Meanwhile, the normal control group (fed in a conventional manner) and the model control group (i.e., the zebrafish model of insomnia established by PTZ) were set, with a capacity of 3 mL per well. […] The zebrafish were analyzed for amount of wake after sleep onset and time of wake after sleep onset. The bovine spleen peptide powder was evaluated for its efficacy in sleep improvement through statistical analysis results of the above indicators. The statistical results were expressed as “mean±standard deviation”.

The test system of assay [2] is zebrafish model of gastrointestinal mucosal injury (TNBS). Description: Evaluation of regulatory efficacy on intestinal goblet cells, TNBS zebrafish model. Particulars: 15.0 μg/mL, 2 days after TNBS, n = 10. The assay is classed as in vivo. The method, then: The 3 dpf wild type zebrafish of line AB were randomly selected and placed in a 6-well plate, and for the experimental groups 30 zebrafish were treated in each well. Except for the normal control group (fed in a conventional manner), all the other experimental groups were given aqueous TNBS to establish a zebrafish model of gastrointestinal mucosal injury. After a 2-day treatment at 28° C., TNBS was removed, and the bovine spleen peptide powder dissolved in water was given at a concentration as shown in Table 9 below. The positive control prednisone was at a concentration of 15.0 μg/mL. Meanwhile, a normal control group and a model control group (i.e., a zebrafish model of gastrointestinal mucosal injury model established by TNBS) were set, with a capacity of 3 mL per well. After a further 2-day treatment at 28° C., 10 zebrafish from each experimental group were randomly selected and placed under the dissecting microscope for photographing. Data were acquired by the NIS-Elements D 3.20 advanced image processing software. The number of goblet cells in the intestine of zebrafish was analyzed. Statistical results were used to evaluate the regulatory efficacy of the goblet cells in the intestine of the zebrafish. The statistical results were expressed as “mean±standard deviation”.

`COc1ccc2[nH]cc(CCNC(C)=O)c2c1` [Melatonin, melatonin]: in assay [1], the “Amount of wake after sleep onset (mean ± standard deviation)” value stood at 346 ± 35.3 mm and the “Time of wake after sleep onset (mean ± standard deviation)” value was found to be 8.18 ± 0.795 s.
Regarding `C[C@]12C=CC(=O)C=C1CC[C@@H]1[C@@H]2C(=O)C[C@@]2(C)[C@H]1CC[C@]2(O)C(=O)CO` [Prednisone, prednisone], the “Number of intestinal goblet cells (mean ± standard deviation)” value in assay [2] was determined as 47.2 ± 1.89 count.
